Measured values as given in ChEMBL document CHEMBL4138149, “Discovery of 1-(3-aryl-4-chlorophenyl)-3-(p-aryl)urea derivatives against breast cancer by inhibiting PI3K/Akt/mTOR and Hedgehog signalings” (Eur J Med Chem, 2017).
Activity calls are given as the source filed them. No cut-off for these calls is given here.

How the values were obtained:
T47D [1] = test: Cytotoxicity against human T47D cells after 72 hrs by MTT assay; type: functional, cell-based
[2] = biological target: Phosphatidylinositol 4,5-bisphosphate 3-kinase catalytic subunit alpha isoform (Homo sapiens) (UniProt P42336); test: Inhibition of PI3Kalpha (unknown origin) at 5 uM using PIP2 as substrate measured after 1 hr by Kinase-Glo luminescent assay relative to control
Sequence of Phosphatidylinositol 4,5-bisphosphate 3-kinase catalytic subunit alpha isoform (Homo sapiens) (P42336 whole entry, canonical isoform): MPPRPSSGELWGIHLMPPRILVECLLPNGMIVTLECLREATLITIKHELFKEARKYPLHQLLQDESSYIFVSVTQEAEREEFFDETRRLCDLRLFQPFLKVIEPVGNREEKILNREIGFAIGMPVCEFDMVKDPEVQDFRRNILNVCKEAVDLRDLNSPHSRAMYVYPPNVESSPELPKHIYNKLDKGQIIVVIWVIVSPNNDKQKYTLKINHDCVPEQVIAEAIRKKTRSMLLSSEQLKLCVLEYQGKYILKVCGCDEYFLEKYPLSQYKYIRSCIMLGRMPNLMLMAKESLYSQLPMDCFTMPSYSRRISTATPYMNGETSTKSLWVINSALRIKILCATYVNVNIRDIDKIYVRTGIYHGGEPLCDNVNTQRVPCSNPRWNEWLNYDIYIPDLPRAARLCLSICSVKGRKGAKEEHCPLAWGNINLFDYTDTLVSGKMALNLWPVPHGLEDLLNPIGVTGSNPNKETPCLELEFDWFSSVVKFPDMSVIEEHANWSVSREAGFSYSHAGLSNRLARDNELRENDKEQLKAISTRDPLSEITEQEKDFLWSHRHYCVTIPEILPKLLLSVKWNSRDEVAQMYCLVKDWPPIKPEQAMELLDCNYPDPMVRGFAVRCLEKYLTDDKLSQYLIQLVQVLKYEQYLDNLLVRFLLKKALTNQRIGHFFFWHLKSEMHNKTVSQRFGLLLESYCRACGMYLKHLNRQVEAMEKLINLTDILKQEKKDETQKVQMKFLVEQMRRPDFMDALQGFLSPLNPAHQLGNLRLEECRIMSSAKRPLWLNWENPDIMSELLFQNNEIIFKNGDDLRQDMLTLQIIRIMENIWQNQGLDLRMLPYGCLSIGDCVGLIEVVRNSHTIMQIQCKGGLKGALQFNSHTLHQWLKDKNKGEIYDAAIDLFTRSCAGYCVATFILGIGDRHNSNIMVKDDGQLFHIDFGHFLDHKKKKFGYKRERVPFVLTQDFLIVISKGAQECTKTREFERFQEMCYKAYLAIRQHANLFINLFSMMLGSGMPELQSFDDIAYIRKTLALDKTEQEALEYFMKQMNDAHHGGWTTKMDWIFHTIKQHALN

MCF7 = test: Cytotoxicity against human MCF7 cells after 72 hrs by MTT assay; type: functional, cell-based; settings: MCF7, 72 h
[3] = biological target: Serine/threonine-protein kinase mTOR (Homo sapiens, UniProt P42345); test: Inhibition of mTOR (unknown origin) using Ulight-4EBP1 peptide as substrate measured after 1 hr by Lance Ultra assay
PC-3 = test: Cytotoxicity against human PC3 cells after 72 hrs by MTT assay; type: functional, cell-based; settings: PC-3, 72 h
MDA-MB-231 [4] = test: cells; settings: Homo sapiens, MDA-MB-231, 72 h
Description: Cytotoxicity against human MDA-MB-231 cells after 72 hrs by MTT assay

[5] = biological target: Phosphatidylinositol 4,5-bisphosphate 3-kinase catalytic subunit alpha isoform (Homo sapiens) (UniProt P42336); test: Inhibition of PI3Kalpha (unknown origin) at 50 uM using PIP2 as substrate measured after 1 hr by Kinase-Glo luminescent assay relative to control
MDA-MB-231 [6] = test: Induction of apoptosis in human MDA-MB-231 cells assessed as late apoptotic cells at 5 uM after 48 hrs by Annexin-V-FITC/propidium iodide staining based flow cytometric method (reference value: 5%); type: functional
MDA-MB-231 [7] = test: Inhibition of PI3K/Akt/mTOR signaling in human MDA-MB-231 cells assessed as reduction in phosphorylation of S6K at Thr389 residue at 5 uM measured within 4 hrs by Western blot analysis; type: cell-based
T47D [8] = test: Induction of apoptosis in human T47D cells assessed as live cells at 5 uM after 48 hrs by Annexin-V-FITC/propidium iodide staining based flow cytometric method (reference value: 86.2%); type: functional
T47D [9] = test: Induction of apoptosis in human T47D cells assessed as early apoptotic cells at 5 uM after 48 hrs by Annexin-V-FITC/propidium iodide staining based flow cytometric method (reference value: 4.49%); type: functional
MDA-MB-231 [10] = test: Induction of apoptosis in human MDA-MB-231 cells assessed as early apoptotic cells at 10 uM after 48 hrs by Annexin-V-FITC/propidium iodide staining based flow cytometric method (reference value: 0.634%); type: functional
T47D [11] = test: Induction of apoptosis in human T47D cells assessed as live cells at 10 uM after 48 hrs by Annexin-V-FITC/propidium iodide staining based flow cytometric method (reference value: 86.2%); type: functional
MDA-MB-231 [12] = test: Induction of apoptosis in human MDA-MB-231 cells assessed as late apoptotic cells at 10 uM after 48 hrs by Annexin-V-FITC/propidium iodide staining based flow cytometric method (reference value: 5%); type: functional
MDA-MB-231 [13] = test: Induction of apoptosis in human MDA-MB-231 cells assessed as live cells at 5 uM after 48 hrs by Annexin-V-FITC/propidium iodide staining based flow cytometric method (reference value: 94.3%); type: functional
MDA-MB-231 [14] = test: Induction of apoptosis in human MDA-MB-231 cells assessed as early apoptotic cells at 5 uM after 48 hrs by Annexin-V-FITC/propidium iodide staining based flow cytometric method (reference value: 0.634%); type: functional
T47D [15] = test: Induction of apoptosis in human T47D cells assessed as early apoptotic cells at 10 uM after 48 hrs by Annexin-V-FITC/propidium iodide staining based flow cytometric method (reference value: 4.49%); type: functional
MDA-MB-231 [16] = test: Inhibition of PI3K/Akt/mTOR signaling in human MDA-MB-231 cells assessed as reduction in phosphorylation of S6K at Thr412 residue at 5 uM measured within 4 hrs by Western blot analysis; type: cell-based
MDA-MB-231 [17] = test: Antimigratory activity against human MDA-MB-231 cells at 5 to 10 uM after 24 hrs by tryphan blue staining based transwell assay; type: functional, cell-based
T47D [18] = test: Induction of apoptosis in human T47D cells assessed as late apoptotic cells at 10 uM after 48 hrs by Annexin-V-FITC/propidium iodide staining based flow cytometric method (reference value: 9.18%); type: functional
T47D [19] = test: Induction of apoptosis in human T47D cells assessed as late apoptotic cells at 5 uM after 48 hrs by Annexin-V-FITC/propidium iodide staining based flow cytometric method (reference value: 9.18%); type: functional
MDA-MB-231 [20] = test: Inhibition of Hedgehog signaling in human MDA-MB-231 cells assessed as reduction in SAG-induced elevation of Gli1 expression at 5 to 10 uM after 48 hrs by Western blot analysis; type: cell-based
MDA-MB-231 [21] = test: Induction of apoptosis in human MDA-MB-231 cells assessed as necrotic cells at 10 uM after 48 hrs by Annexin-V-FITC/propidium iodide staining based flow cytometric method (reference value: 0.086%); type: functional
MDA-MB-231 [22] = test: Induction of apoptosis in human MDA-MB-231 cells assessed as necrotic cells at 5 uM after 48 hrs by Annexin-V-FITC/propidium iodide staining based flow cytometric method (reference value: 0.086%); type: functional
T47D [23] = test: Induction of apoptosis in human T47D cells assessed as necrotic cells at 10 uM after 48 hrs by Annexin-V-FITC/propidium iodide staining based flow cytometric method (reference value: 0.135%); type: functional
MDA-MB-231 [24] = test: Inhibition of PI3K/Akt/mTOR signaling in human MDA-MB-231 cells assessed as reduction in AKT phosphorylation at Ser473 residue at 5 uM by Western blot analysis; type: cell-based; settings: TDE = time-dependent effect
T47D [25] = test: Induction of apoptosis in human T47D cells assessed as necrotic cells at 5 uM after 48 hrs by Annexin-V-FITC/propidium iodide staining based flow cytometric method (reference value: 0.135%); type: functional
MDA-MB-231 [26] = test: Induction of apoptosis in human MDA-MB-231 cells assessed as live cells at 10 uM after 48 hrs by Annexin-V-FITC/propidium iodide staining based flow cytometric method (reference value: 94.3%); type: functional

In the case of `O=C(Nc1ccc(-c2ccnc(N3CCOCC3)n2)cc1)Nc1ccc(Cl)c(-c2ccccc2)c1`, the IC50 (T47D [1]) is reported as 44.6 µM.

`O=C(Nc1ccc(-c2nc(N3CCOCC3)nc(N3CCOCC3)n2)cc1)Nc1ccc(Cl)c(-c2cccnc2)c1` showed an IC50 (T47D [1]) of 9.38 µM, an inhibition [2] of 26.6% and an IC50 (MCF7) of 5.75 µM. The IC50 [3] was 0.2 µM, the IC50 (PC-3) was 5.37 µM and the IC50 (MDA-MB-231 [4]) was 7.82 µM.

With `O=C(Nc1ccc(-c2cc(N3CCOCC3)nc(N3CCOCC3)n2)cc1)Nc1ccc(Cl)c(-c2ccncc2)c1` the IC50 (T47D [1]) was 7.41 µM, the inhibition [2] was 9.37% and the IC50 (MCF7) was 8.2 µM. It also gave an IC50 [3] of 0.26 µM, an IC50 (PC-3) of 9.28 µM and an IC50 (MDA-MB-231 [4]) of 7.32 µM.

`O=C(Nc1ccc(-c2nc(N3CCOCC3)nc(N3CCOCC3)n2)cc1)Nc1ccc(Cl)c(-c2ccccn2)c1` was tested, and the IC50 (T47D [1]) was 14.2 µM, the inhibition [2] was 6.8% and the IC50 [3] was 0.09 µM.

In the case of `O=C(Nc1ccc(-c2ccnc(N3CCOCC3)n2)cc1)Nc1ccc(Cl)c(-c2cccnc2)c1`, the inhibition [5] is reported as 30%, the IC50 (T47D [1]) is reported as 4.11 µM and the IC50 (MCF7) is reported as 16.8 µM. The IC50 [3] was over 10 µM, the IC50 (PC-3) was 11.8 µM and the IC50 (MDA-MB-231 [4]) was 14.5 µM.

Work on `O=C(Nc1ccc(-c2ccnc(N3CCOCC3)n2)cc1)Nc1ccc(Cl)c(-c2cccs2)c1` yielded an IC50 (T47D [1]) of 24.3 µM.

`O=C(Nc1ccc(-c2cc(N3CCOCC3)nc(N3CCOCC3)n2)cc1)Nc1ccc(Cl)c(-c2ccccn2)c1` showed an IC50 (T47D [1]) of 35.1 µM.

For `O=C(Nc1ccc(-c2cc(N3CCOCC3)nc(N3CCOCC3)n2)cc1)Nc1ccc(Cl)c(-c2ccsc2)c1`, the IC50 (T47D [1]) was 18.7 µM.

Compound `CS(=O)(=O)c1ccc(C(=O)Nc2ccc(-c3ccnc(N4CCOCC4)n3)cc2)c(Cl)c1` has an IC50 (T47D [1]) of 25 µM.

In the case of `O=C(Nc1ccc(-c2ccnc(N3CCOCC3)n2)cc1)Nc1ccc(Cl)c(-c2ccsc2)c1`, the IC50 (T47D [1]) is reported as 22.6 µM.

`O=C(Nc1ccc(-c2cc(N3CCOCC3)nc(N3CCOCC3)n2)cc1)Nc1ccc(Cl)c(-c2ccccc2)c1` showed an IC50 (T47D [1]) of 15.6 µM.

Compound `O=C(Nc1ccc(-c2nc(N3CCOCC3)nc(N3CCOCC3)n2)cc1)Nc1ccc(Cl)c(-c2ccsc2)c1` has an IC50 (T47D [1]) of 23.2 µM.

Work on `O=C(Nc1ccc(-c2ccnc(N3CCOCC3)n2)cc1)Nc1ccc(Cl)c(-c2ccncc2)c1` yielded an IC50 (T47D [1]) of 16 µM, an IC50 (MCF7) of 19.2 µM and an IC50 (PC-3) of 17.7 µM. It also gave an IC50 (MDA-MB-231 [4]) of 18.9 µM.

In the case of `O=C(Nc1ccc(-c2ccnc(N3CCOCC3)n2)cc1)Nc1ccc(Cl)c(-c2ccccn2)c1`, the IC50 (T47D [1]) is reported as 23.1 µM.

Work on `O=C(Nc1ccc(-c2cc(N3CCOCC3)nc(N3CCOCC3)n2)cc1)Nc1ccc(Cl)c(-c2cccnc2)c1` yielded an IC50 (T47D [1]) of 3.96 µM, an inhibition [2] of 35.1% and an IC50 (MCF7) of 9.15 µM. For the same compound, the IC50 [3] was 0.33 µM, the IC50 (PC-3) was 15.5 µM and the IC50 (MDA-MB-231 [4]) was 8.49 µM.

`O=C(Nc1ccc(-c2cc(N3CCOCC3)nc(N3CCOCC3)n2)cc1)Nc1ccc(Cl)c(-c2cccs2)c1` gave an IC50 (T47D [1]) of 25.4 µM.

`CS(=O)(=O)c1ccc(C(=O)Nc2ccc(Cl)c(-c3ccccn3)c2)c(Cl)c1` [VISMODEGIB] gave an IC50 (T47D [1]) of 41.3 µM, an IC50 (MCF7) of over 50 µM and an IC50 (PC-3) of over 50 µM. For the same compound, the IC50 (MDA-MB-231 [4]) was over 50 µM.

`CS(=O)(=O)c1ccc(C(=O)Nc2ccc(-c3nc(N4CCOCC4)nc(N4CCOCC4)n3)cc2)c(Cl)c1` showed an IC50 (T47D [1]) of 17.5 µM.

`Nc1cc(C(F)(F)F)c(-c2cc(N3CCOCC3)nc(N3CCOCC3)n2)cn1` [BUPARLISIB] was tested, and the IC50 (T47D [1]) was 6.92 µM, the IC50 (MCF7) was 11.1 µM and the IC50 (PC-3) was 5.34 µM. For the same compound, the IC50 (MDA-MB-231 [4]) was 1.88 µM.

With `O=C(Nc1ccc(-c2nc(N3CCOCC3)nc(N3CCOCC3)n2)cc1)Nc1ccc(Cl)c(-c2ccncc2)c1` the Activity (MDA-MB-231 [6]) was 28.6%, the inhibition (MDA-MB-231 [7]) was “Active” and the Activity (T47D [8]) was 80.8%. It also gave an Activity (T47D [9]) of 8.49%, an Activity (MDA-MB-231 [10]) of 42.5% and an Activity (T47D [11]) of 13.9%. The Activity (MDA-MB-231 [12]) was 49.9%, the Activity (MDA-MB-231 [13]) was 51.6% and the Activity (MDA-MB-231 [14]) was 18.7%. The Activity (T47D [15]) was 75.1%, the inhibition (MDA-MB-231 [16]) was “Active” and the Activity (MDA-MB-231 [17]) was “Active”. For the same compound, the Activity (T47D [18]) was 10.6%, the IC50 (T47D [1]) was 7.94 µM and the Activity (T47D [19]) was 10.5%. For the same compound, the inhibition [2] was 16.3%, the inhibition (MDA-MB-231 [20]) was “Active” and the IC50 (MCF7) was 7.61 µM. It also gave an Activity (MDA-MB-231 [21]) of 0.595%, an IC50 [3] of 0.18 µM and an Activity (MDA-MB-231 [22]) of 1.17%. For the same compound, the IC50 (PC-3) was 11 µM, the Activity (T47D [23]) was 0.347% and the inhibition (MDA-MB-231 [24]) was “Tde”. The IC50 (MDA-MB-231 [4]) was 3.61 µM, the Activity (T47D [25]) was 0.132% and the Activity (MDA-MB-231 [26]) was 7.01%.

Compound `O=C(Nc1ccc(-c2nc(N3CCOCC3)nc(N3CCOCC3)n2)cc1)Nc1ccc(Cl)c(-c2cccs2)c1` has an IC50 (T47D [1]) of 44.1 µM.

In the case of `O=C(Nc1ccc(-c2nc(N3CCOCC3)nc(N3CCOCC3)n2)cc1)Nc1ccc(Cl)c(-c2ccccc2)c1`, the IC50 (T47D [1]) is reported as 15.4 µM, the inhibition [2] is reported as 57.1% and the IC50 [3] is reported as 3.45 µM.

In the case of `CS(=O)(=O)c1ccc(C(=O)Nc2ccc(-c3cc(N4CCOCC4)nc(N4CCOCC4)n3)cc2)c(Cl)c1`, the IC50 (T47D [1]) is reported as 22.3 µM.
